From patent US7005418B1, “Method for the therapeutic management of extrauterine proliferation of endometrial tissue, chronic pelvic pain and fallopian tube obstruction” (Zentaris GmbH, priority 1999, dated 2006)
Non-standard residues stand in square brackets, D forms with d. Residues, ends and D or L forms follow the SMILES beside them. dPhe(4-Cl) = N[C@H](Cc1ccc(Cl)cc1)C(=O)O; d2Nal = N[C@H](Cc1ccc2ccccc2c1)C(=O)O; dCit = NC(=O)NCCC[C@@H](N)C(=O)O; d3Pal = N[C@H](Cc1cccnc1)C(=O)O

Assays:
[1] = tested on: patients with confirmed endometriosis; experiment: Weekly s.c. LHRH-antagonist treatment for 8 weeks in patients with endometriosis: clinical outcome and tolerability (2nd look laparascopy, histological biopsies); assay type: in vivo, human (patients); settings: for hot flushes or other (estradiol) withdrawal symptoms / proliferation of the endometrium at the end of treatment (histological biopsies): patients with endometriosis, 3 mg weekly for 8 weeks
Method: (§1) The weekly administration of an adequate dose of an LHRH antagonist, e.g. 3 mg Cetrotide® s.c./ per week over a period of eight weeks leads to a controlled suppression of estrogen secretion so that serum concentrations between about 35 pg/ml and about 80 pg/ml, preferably between about 45–75 pg/ml, more preferably between about 50–75 pg/ml are obtained. […] Also the development of osteoporosis can be avoided.

estradiol secretion = experiment: Weekly s.c. LHRH-antagonist treatment for 8 weeks in patients with endometriosis: estradiol serum levels; assay type: in vivo, human (patients); settings: weekly dose of 1 mg resp. 3 mg once per week
Method: 3 mg once per week. The estradiol serum levels are between about 35–80 pg/ml, preferably between about 45–75 pg/ml, more preferably between about 50–75 pg/ml.
as §1

[2] = nine patients with confirmed endometriosis, 3 mg s.c. weekly for 8 weeks

| SMILES | ovarian cyst formation [1, 2] | progress of the disease, confirmed by 2nd look laparascopy [1, 2] | hot flushes or other (estradiol) withdrawal symptoms [1] | proliferation of the endometrium at the end of treatment (histological biopsies) [1] | estradiol serum levels (FIG. 2) (estradiol secretion) |
| --- | --- | --- | --- | --- | --- |
| CC(=O)N[C@H](Cc1ccc2ccccc2c1)C(=O)N[C@H](Cc1ccc(Cl)cc1)C(=O)N[C@H](Cc1cccnc1)C(=O)N[C@@H](CO)C(=O)N[C@@H](Cc1ccc(O)cc1)C(=O)N[C@H](CCCNC(N)=O)C(=O)N[C@@H](CC(C)C)C(=O)N[C@@H](CCCNC(=N)N)C(=O)N1CCC[C@H]1C(=O)N[C@H](C)C(N)=O [Cetrorelix acetate] (Ac-[d2Nal][dPhe(4-Cl)][d3Pal]SY[dCit]LRP[dA]-NH2) | No ovarian cyst formation occurred | without any progress of the disease | avoiding any hot flushes or other withdrawal symptoms | no proliferation of the endometrium | – |
| CC(=O)N[C@H](Cc1ccc2ccccc2c1)C(=O)N[C@H](Cc1ccc(Cl)cc1)C(=O)N[C@H](Cc1cccnc1)C(=O)N[C@@H](CO)C(=O)N[C@@H](Cc1ccc(O)cc1)C(=O)N[C@H](CCCNC(N)=O)C(=O)N[C@@H](CC(C)C)C(=O)N[C@@H](CCCNC(=N)N)C(=O)N1CCC[C@H]1C(=O)N[C@H](C)C(N)=O [Cetrorelix] (Ac-[d2Nal][dPhe(4-Cl)][d3Pal]SY[dCit]LRP[dA]-NH2) | – | – | without any signs of estradiol withdrawal symptoms | without proliferation of the endometrium | 35 to 80 pg/mL |
